Reference: patent US10626103B2, “Inhibitor of lysine specific demethylase-1” (CELGENE QUANTICEL RESEARCH, INC., priority 2014, dated 2020)

Experiments:
[1] = system: Kasumi-1 AML cancer cell line; assay: Kasumi-1 AML cell line proliferation assay (Cell-MTS assay); format: cell-based; details: Homo sapiens, Kasumi-1 cells, 168 hours
Source text: Colorimetric cellular assay to assess the ability of LSD-1 small molecule inhibitors to effect the proliferation of the established AML cancer cell line Kasumi-1.
This Cell-MTS assay is a 7-day plate based colorimetric assay which quantifies the amount of newly generated NADH in the presence and absence of test compound. These NADH levels are used as a proxy for the quantification of cancer cell proliferation.
The established cancer cell line Kasumi-1 with a verified p53 mutation were purchased from American Type Culture Collection (ATCC) and routinely passaged according to ATCC published protocols. For routine assay these cells were seeded at a density of 20,000 cells per 96-well. 24 hours after plating, cells received an 11 point dilution of test compound with final concentration ranges from 100 LM to 2.0 nM. Cells are incubated in the presence of compound for 168 hours at 37° C., 5% CO2. At the end of this compound incubation period, 80 μl of media is removed and 20 μL of CellTiter 96® AQueous Non-Radioactive Cell Proliferation Assay solution (Promega) is added. The cells are incubated until the OD490 is >0.6. IC50 values are calculated using the IDBS XLfit software package and include background subtracted OD490 values and normalization to DMSO controls.
Table 5 provides the Kasumi-1 cellular IC50 values of various substituted heterocyclic compounds disclosed herein.

[2] = system: CD11b expression in THP-1 (AML) cells; assay: LSD1 CD11b cellular assay (flow cytometry); format: cell-based; details: Homo sapiens, 96 h, THP-1 cells, 4 days
Procedure, shortened: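 THP-1 cells were exposed to serially diluted compounds (0.2% DMSO final) for 4 days at 37 °C. CD11b expression was measured by flow cytometry with DAPI staining. The percent of CD11b-positive cells per concentration gave the IC50 curve.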

full-length human LSD1 = full-length human LSD1 (Homo sapiens (Human), UniProt O60341); assay: In vitro enzyme inhibition assay LSD-1 (TR-FRET); format: biochemical; details: H3K4me1-biotin peptide
Procedure, shortened: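 Demethylase activity of full-length human LSD1 was detected by TR-FRET after 1 hour incubation at room temperature. Excitation was at 320 nm, with emission at 615 nm and 665 nm. IC50 values were derived from the inhibition data.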

Row | SMILES | IC50 [1] [nM] | IC50 [2] [nM] | IC50 (full-length human LSD1) [nM]
1 | CN[C@H]1CCN(C(=O)c2nc(-c3ccc(C#N)c(F)c3)n(-c3ccc(OC)c(F)c3)c2C)C1 [Example 64, 2-Fluoro-4-[1-(3-fluoro-4-methoxyphenyl)-5-methyl-4-[(3S)-3-(methylamino)pyrrolidine-1-carbonyl]imidazol-2-yl]benzonitrile] | ≤ 100 | < 100 | < 100
2 | COc1ccc(-n2c(-c3ccc(C#N)c(F)c3)nc(C(=O)N3CC[C@H](N)C3)c2C)cc1 [Example 14, 4-[4-[(3S)-3-aminopyrrolidine-1-carbonyl]-1-(4-methoxyphenyl)-5-methylimidazol-2-yl]-2-fluorobenzonitrile] | ≤ 100 | < 100 | < 100
3 | Cc1c(C(=O)N2CC[C@H](N(C)C)C2)nc(-c2ccc(C#N)c(F)c2)n1-c1ccc2nn(C)cc2c1 [Example 94, 4-[4-[(3S)-3-(Dimethylamino)pyrrolidine-1-carbonyl]-5-methyl-1-(2-methylindazol-5-yl)imidazol-2-yl]-2-fluorobenzonitrile] | ≤ 100 | – | –
4 | COc1ccc(-n2c(-c3ccc(C#N)c(F)c3)nc(C(=O)N3CCC[C@@H](N)C3)c2C)cc1F [Example 16, 4-[4-[(3R)-3-aminopiperidine-1-carbonyl]-1-(3-fluoro-4-methoxyphenyl)-5-methylimidazol-2-yl]-2-fluorobenzonitrile] | ≤ 100 | – | –
5 | COc1ccc(-n2c(-c3ccc(C#N)c(F)c3)nc(C(=O)N3CCC[C@@H](N)C3)c2F)cc1F [Example 67, 4-[4-[(3R)-3-Aminopiperidine-1-carbonyl]-5-fluoro-1-(3-fluoro-4-methoxyphenyl)imidazol-2-yl]-2-fluorobenzonitrile] | ≤ 100 | < 100 | < 100
6 | COc1ccc(-n2c(-c3ccc(C#N)c(F)c3)nc(C(=O)N3CC(CN)C3)c2C)cc1F [Example 88, 4-[4-[3-(Aminomethyl)azetidine-1-carbonyl]-1-(3-fluoro-4-methoxyphenyl)-5-methylimidazol-2-yl]-2-fluorobenzonitrile] | ≤ 100 | – | –
7 | COc1ccc(-n2c(-c3ccc(C#N)c(F)c3)nc(C(=O)N3CCC[C@@H](N)C3)c2C)cc1 [Example 12, 4-[4-[(3R)-3-aminopiperidine-1-carbonyl]-1-(4-methoxyphenyl)-5-methylimidazol-2-yl]-2-fluorobenzonitrile] | ≤ 100 | – | –
8 | COc1ccc(-n2c(-c3ccc(C#N)c(F)c3)nc(C(=O)N3CC[C@H](N)C3)c2C)cc1F [Example 18, 4-[4-[(3S)-3-aminopyrrolidine-1-carbonyl]-1-(3-fluoro-4-methoxyphenyl)-5-methylimidazol-2-yl]-2-fluorobenzonitrile] | ≤ 100 | – | –
9 | Cc1c(C(=O)N(C)CCN)nc(-c2ccc(C#N)c(F)c2)n1-c1ccc2nn(C)cc2c1 [Example 44, N-(2-Aminoethyl)-2-(4-cyano-3-fluorophenyl)-N,5-dimethyl-1-(2-methylindazol-5-yl)imidazole-4-carboxamide] | – | < 100 | < 100
10 | CN[C@H]1CCCN(C(=O)c2cn(-c3ccc4nn(C)c(Cl)c4c3)c(-c3ccc(C#N)c(F)c3)n2)C1 [Example 116, 4-[1-(3-Chloro-2-methylindazol-5-yl)-4-[(3S)-3-(methylamino)piperidine-1-carbonyl]imidazol-2-yl]-2-fluorobenzonitrile] | – | < 100 | < 100
11 | COc1ccc(-n2c(-c3ccc(C#N)c(F)c3)nc(C(=O)N[C@@H]3CCCNC3)c2F)cc1F [Example 86, 2-(4-Cyano-3-fluorophenyl)-5-fluoro-1-(3-fluoro-4-methoxyphenyl)-N-[(3R)-piperidin-3-yl]imidazole-4-carboxamide] | – | 100 to 1000 | < 100
12 | Cn1cc2cc(-n3c(-c4ccc(C#N)c(F)c4)nc(C(=O)N4CCC[C@@H](N)C4)c3Cl)ccc2n1 [Example 75, 4-[4-[(3R)-3-Aminopiperidine-1-carbonyl]-5-chloro-1-(2-methylindazol-5-yl)imidazol-2-yl]-2-fluorobenzonitrile] | – | < 100 | < 100
13 | CN[C@@H]1CCCN(C(=O)c2nc(-c3ccc(C#N)c(F)c3)n(-c3ccc(OC)cc3)c2F)C1 [Example 74, 2-Fluoro-4-[5-fluoro-1-(4-methoxyphenyl)-4-[(3R)-3-(methylamino)piperidine-1-carbonyl]imidazol-2-yl]benzonitrile] | – | < 100 | < 100
14 | Cc1c(C(=O)N[C@@H]2CCCN(C)C2)nc(-c2ccc(C#N)c(F)c2)n1-c1ccc2nn(C)cc2c1 [Example 60, 2-(4-Cyano-3-fluorophenyl)-5-methyl-1-(2-methylindazol-5-yl)-N-[(3R)-1-methylpiperidin-3-yl]imidazole-4-carboxamide] | – | < 100 | < 100

The next lines start with the values.

Row | IC50 [1] [nM] | IC50 [2] [nM] | IC50 (full-length human LSD1) [nM] | SMILES
15 | ≤ 100 | < 100 | < 100 | CN[C@@H]1CCCN(C(=O)c2nc(-c3ccc(C#N)c(F)c3)n(-c3ccc(OC)cc3)c2C)C1 [Example 70, 2-Fluoro-4-[1-(4-methoxyphenyl)-5-methyl-4-[(3R)-3-(methylamino)piperidine-1-carbonyl]imidazol-2-yl]benzonitrile]
16 | ≤ 100 | < 100 | < 100 | Cc1c(C(=O)N2CC[C@H](N(C)C)C2)nc(-c2ccc(C#N)c(F)c2)n1-c1ccc2nn(C)c(Cl)c2c1 [Example 96, 4-[1-(3-Chloro-2-methylindazol-5-yl)-4-[(3S)-3-(dimethylamino)pyrrolidine-1-carbonyl]-5-methylimidazol-2-yl]-2-fluorobenzonitrile]
17 | ≤ 100 | < 100 | < 100 | Cn1nc2ccc(-n3c(-c4ccc(C#N)c(F)c4)nc(C(=O)N4CCC[C@@H](N)C4)c3Cl)cc2c1Cl [Example 76, 4-[4-[(3R)-3-Aminopiperidine-1-carbonyl]-5-chloro-1-(3-chloro-2-methylindazol-5-yl)imidazol-2-yl]-2-fluorobenzonitrile]
18 | – | < 100 | < 100 | CN[C@H]1CCN(C(=O)c2cn(-c3ccc(OC)c(F)c3)c(-c3ccc(C#N)c(F)c3)n2)C1 [Example 65, 2-Fluoro-4-[1-(3-fluoro-4-methoxyphenyl)-4-[(3S)-3-(methylamino)pyrrolidine-1-carbonyl]imidazol-2-yl]benzonitrile]
19 | – | < 100 | < 100 | COc1ccc(-n2cc(C(=O)N3CC[C@H](N)C3)nc2-c2ccc(C#N)c(F)c2)cc1F [Example 20, 4-[4-[(3S)-3-aminopyrrolidine-1-carbonyl]-1-(3-fluoro-4-methoxyphenyl)imidazol-2-yl]-2-fluorobenzonitrile]
20 | – | < 100 | < 100 | CN[C@@H]1CCCN(C(=O)c2cn(-c3ccc(OC)cc3)c(-c3ccc(C#N)c(F)c3)n2)C1 [Example 72, 2-Fluoro-4-[1-(4-methoxyphenyl)-4-[(3R)-3-(methylamino)piperidine-1-carbonyl]imidazol-2-yl]benzonitrile]
21 | – | < 100 | < 100 | Cn1cc2cc(-c3c(-c4ccc(C#N)c(F)c4)cc(C(=O)N4CCC[C@@H](N)C4)n3CCO)ccc2n1 [Example 35, (R)-4-(5-(3-aminopiperidine-1-carbonyl)-1-(2-hydroxyethyl)-2-(2-methyl-2H-indazol-5-yl)-1H-pyrrol-3-yl)-2-fluorobenzonitrile]
22 | – | < 100 | < 100 | CN[C@H]1CCN(C(=O)c2nc(-c3ccc(C#N)c(F)c3)n(-c3ccc(OC)cc3)c2F)C1 [Example 73, 2-Fluoro-4-[5-fluoro-1-(4-methoxyphenyl)-4-[(3S)-3-(methylamino)pyrrolidine-1-carbonyl]imidazol-2-yl]benzonitrile]
23 | – | < 100 | < 100 | COc1ccc(-n2cc(C(=O)N3CCC[C@@H](N)C3)nc2-c2ccc(C#N)c(F)c2)cc1F [Example 19, 4-[4-[(3R)-3-aminopiperidine-1-carbonyl]-1-(3-fluoro-4-methoxyphenyl)imidazol-2-yl]-2-fluorobenzonitrile]
24 | – | < 100 | < 100 | Cc1c(C(=O)NC2CCNC2)nc(-c2ccc(C#N)c(F)c2)n1-c1ccc2nn(C)cc2c1 (stereo not drawn) [Example 46, 2-(4-Cyano-3-fluorophenyl)-5-methyl-1-(2-methylindazol-5-yl)-N-pyrrolidin-3-ylimidazole-4-carboxamide]
25 | – | < 100 | < 100 | Cc1c(C(=O)N2CC[C@H](N(C)C)C2)nc(-c2ccc(C#N)c(F)c2)n1-c1cc2c(Cl)n(C)nc2cc1F [Example 110, 4-[1-(3-Chloro-6-fluoro-2-methylindazol-5-yl)-4-[(3S)-3-(dimethylamino)pyrrolidine-1-carbonyl]-5-methylimidazol-2-yl]-2-fluorobenzonitrile]
